We go through 8 molecules from US11034725B2, “Compositions and methods for treating cardiovascular disease” (Genentech, Inc., priority 2016, dated 2021).

“Also recorded” adds a separate entry of the source. Square brackets hold non-standard residues; d marks the D form. Ends that are not written are not given here. Peptide text beside a SMILES is read from it. * marks the point of attachment. hArg = N=C(N)NCCCC[C@H](N)C(=O)O; Pentanoyl = CCCCC(=O)* A value given as a limit tells only on which side of the number the result lay.

For data set [1], the target named is T1, PCSK9 (Homo sapiens, UniProt Q8NBP7). The experiment in a line: PCSK9/EGF(A) TR-FRET binding assay. Particulars: TR-FRET, Example 7; read-out: PCSK9/EGF(A) IC50. A general note: TR-FRET usually uses a lanthanide donor and a delayed reading to cut background.
Data set [2] addresses T2, PCSK9Δhelix (Homo sapiens, UniProt Q8NBP7).
T2 construct: Human PCSK9 construct M1-Q692 with an engineered TEV site (residue deletion Y166, R167); made in house; host or cells: CHO
The experiment in a line: PCSK9Δhelix/Ab20 TR-FRET binding assay.

The test system of data set [3] is His-EGF(A)-Fc. The data set can be described thus: His-EGF(A)-Fc TR-FRET counterscreen. Particulars: counterscreen, Example 7.
Data set [4] deals with T3, PCSK9-R167A:R215A:R218A (PCSK9-AAA) (Homo sapiens, UniProt Q8NBP7, R167A/R215A/R218A).
T3 construct: made in house; host or cells: CHO (transient)
The experiment in a line: FXIa cleavage assay of the P′ helix of PCSK9-AAA. The format is biochemical. The following applies: immunoblot with anti-N-terminal peptide antibody. The method, then:
The PCSK9-AAA mutant (2.6 μM) was incubated with 50 nM FXIa (Haematologic Technologies) in Tris buffer (50 mM Tris, 150 mM NaCl, 4 mM CaCl2, pH 8.0) at room temperature for the indicated time periods. […] After SDS-PAGE of the samples, proteins were transferred to a nitrocellulose membrane using iBlot (Invitrogen). Proteins were then probed with a polyclonal rabbit antibody (1:3000) raised against the PCSK9 N-terminal peptide (^153[…]^168 (SEQ ID NO: 5)), followed with HRP-conjugated donkey anti-rabbit antibody (1:5000, GE Healthcare) using iBind (Invitrogen). PCSK9 signals were detected by ECL (GE Healthcare) and visualized by autoradiography.
Proteins were then probed with a polyclonal rabbit antibody (1:3000) raised against the PCSK9 N-terminal peptide (^153[…]^168 (SEQ ID NO: 5)), followed with HRP-conjugated donkey anti-rabbit antibody (1:5000, GE Healthcare) using iBind (Invitrogen). PCSK9 signals were detected by ECL (GE Healthcare) and visualized by autoradiography.
On the technique in general: Immunoblotting shows a protein as a band on a membrane.

Data set [5] has as its target T4, FXIa (Homo sapiens, UniProt P03951).
T4 construct: purchased Haematologic Technologies
The experiment in a line: LC-MS determination of FXIa-mediated cleavage of groove-binding peptides. The format is in vitro ADME. The method, then: Peptide cleavage was determined by using the calculated molecular weights and by measuring the area under the curves.

Data set [6] deals with T5, LDLR ectodomain (Homo sapiens, UniProt P01130).
T5 construct: purchased R & D Systems
The data set can be described thus: Biolayer interferometry binding of PCSK9 mutants to LDLR ectodomain. From the text: In further experiments the previously described PCSK9 mutant PCSK9-R215A:R218A (=PCSK9-AA) (Lipari et al. J Biol Chem. 2012 Dec. 21; 287(52):43482-91), in which the “furin cleavage loop” residues had been changed to Alanine, was used in order to prevent protease cleavage at the susceptible residues R215 and R218. […] Therefore, to direct the FXIa cleavage specifically to the P′ alpha helix residue R160 the triple mutant PCSK9-R167A:R215A:R218A (=PCSK9-AAA) was produced. The binding affinities of PCSK9-AAA and PCSK9-AA to the LDLR ectodomain (R & D Systems) were determined by biolayer interferometry as described (Lipari et al. J Biol Chem. 2012 Dec. 21; 287(52):43482-91).

In data set [7] the target is T1, PCSK9. The data set can be described thus: Phage competition ELISA. The format is binding. The method, then:
The sequences of selected clones were fused to the N-terminus of M13 major coat protein (p8) using Kunkel mutagenesis method (Kunkel et al., Methods Enzymol 154, 367-82). The resulting construct was transformed to E. Coli. XL1 blue, single colony was grown in 1 mL 2YT supplemented with 50 μg/mL carbenicillin, 10 μg/mL Tetracycline and M13 KO7 helper phage at 37° C. for 2 h, Kanamycin was added to final concentration of 25 μg/mL, growth was continued at 37° C. for 6 h. The culture was transferred to 30 mL 2YT supplemented with 50 μg/mL carbenicillin and 25 μg/mL kanamycin and grown at 37° C. overnight. The next day, the phage was harvested and purified using the standard protocol (Tonikian et al. Nat Protoc. 2007; 2(6):1368-86). The serially diluted phage solution was applied to the biotinylated PCSK9 and biotinylated PCSK9Δhelix that had been immobilized for 15 min on a 384-well MaxiSorp ImmunoPlate previously coated with 5 μg/mL NeutrAvidin and blocked with Block buffer. The plate was incubated at 4° C. for 1 h, washed 10 times with PT buffer (PBS, 0.05% Tween® 20). The bound phage was detected with anti-M13-HRP and the ELISA signal was read at OD450 nm. The background was ELISA signal that the phage directly bound to NeutrAvidin-coated plate. The data was plotted and the curve fitted with KaleidaGraph. Sub-saturating phage concentration that gave 80% of maximum binding signal was determined by the binding curve.
IC50 measurements were performed by mixing a fixed sub-saturating concentration of peptide-displaying phage with a serial dilution of synthetic peptides in PBT buffer. The mixture was added to plates coated with PCSK9 and PCSK9Δhelix and incubated for 1 h at room temperature. The plates were then washed 10 times with PBT buffer and the bound phage was detected by anti-M13-HRP. The data was plotted, curve fitted and IC50 derived by use of KaleidaGraph. All measurements were repeated 3 times independently.
For orientation: In an ELISA, binding on a coated surface is turned into a signal by an enzyme label.

Data set [8] has as its target T1, PCSK9. The data set can be described thus: PCSK9 | IC50(uM). The text has this: Where the first naming reader finds the target: head: PCSK9 | IC50(uM)
The target in data set [9] is T2, PCSK9Δhelix. The data set can be described thus: PCSK9Δhelix | IC50(uM). From the text: Where the first naming reader finds the target: head: PCSK9Δhelix | IC50(uM)
Data set [10] has as its system contaminating protease. The data set can be described thus: PCSK9 cleavage under crystallization conditions and inhibition by serine protease inhibitors. The format is biochemical. The following applies: serpins 150 μM, Aprotinin 1.5 mM, 9 days, room temperature. The method, then: After SDS-PAGE of the samples, the 60 kDa band comprising the PCSK9 catalytic domain and Cys-rich domain (CRD) was analyzed by N-terminal sequencing and the results reported in Table 2.
Samples were analyzed by SDS-PAGE and transferred to a nitrocellulose membrane using iBlot (Invitrogen). Proteins were then probed with a polyclonal rabbit antibody (1:3000) raised against the PCSK9 N-terminal peptide (^153[…]^168 (SEQ ID NO: 5)), followed with HRP-conjugated donkey anti-rabbit antibody (1:5000, GE Healthcare) using iBind (Invitrogen). PCSK9 signals were detected by ECL (GE Healthcare) and visualized by autoradiography. The polyclonal rabbit antibody against the PCSK9 N-terminal peptide ^153[…]^168 (SEQ ID NO: 5) was generated by immunizing rabbits with the synthesized peptide […] (SEQ ID NO: 285), which contained an extra Cys residue at the N-terminus for conjugation to KLH. The polyclonal antibody IgG was purified from rabbit serum using affinity chromatography with resin-immobilized peptide […] (SEQ ID NO: 285) (YenZym Antibodies, LLC, San Francisco, Calif.).

Turning to `CCCCC(=O)N[C@@H](Cc1c[nH]c2ccccc12)C(=O)N[C@@H](CC(N)=O)C(=O)N[C@@H](CC(C)C)C(=O)N[C@H](C(=O)N[C@@H](CCCNC(=N)N)C(=O)N[C@H](C(=O)NCC(=O)N[C@@H](CC(C)C)C(=O)N[C@H](C(=O)N[C@@H](CCCNC(=N)N)C(N)=O)[C@@H](C)O)[C@@H](C)CC)C(C)C` [Compound 112] (Pentanoyl-WNLVRIGLTR-NH2), the IC50 in data set [1] was over 50000 nM; in [2] (TR-FRET, Example 7, read-out: PCSK9Δhelix/Ab20 IC50), 7500 nM; in data set [3], over 50000 nM. Further, the “effect on FXIa-mediated cleavage of the P′ helix of PCSK9-AAA” value in [4] is given as “able to increase the FXIa-mediated cleavage”. Also, the “peptide cleaved by FXIa” value in data set [5] (1 h, with K9-AAA and 50 nM FXIa) was 34%; in [5] (6 h, with K9-AAA and 50 nM FXIa), 76%. Also, the metabolised at 1 h in data set [5] (isolated protease FXIa (50 nM) with K9-AAA, 1 h, with K9-AAA and 50 nM FXIa, read-out: peptide cleaved by FXIa) amounted to 34%. The metabolised at 6 h in data set [5] (isolated protease FXIa (50 nM) with K9-AAA, 6 h, with K9-AAA and 50 nM FXIa, read-out: peptide cleaved by FXIa) turned out to be 76%.

Turning to `CCCCC(=O)N[C@@H](Cc1c[nH]c2ccccc12)C(=O)N[C@@H](CC(N)=O)C(=O)N[C@@H](CC(C)C)C(=O)N[C@H](C(=O)N[C@@H](CCCCNC(=N)N)C(=O)N[C@H](C(=O)NCC(=O)N[C@@H](CC(C)C)C(=O)N[C@H](C(=O)N[C@@H](CCCNC(=N)N)C(N)=O)[C@@H](C)O)[C@@H](C)CC)C(C)C` [Compound 118, n-BuC(O)-WNLV(homoR)IGLTR-NH2] (Pentanoyl-WNLV[hArg]IGLTR-NH2), the IC50 in data set [1] and in data set [3] was over 50000 nM throughout. Also, the “increase of inhibition in PCSK9Δhelix/Ab20 assay by homo-arginine replacement” value in data set [2] (versus Compound 112) is on record as 5 fold. Moreover, the “effect on FXIa-mediated cleavage of the P′ helix of PCSK9-AAA” value in [4] is “higher degree; also recorded: able to increase the FXIa-mediated cleavage; also recorded: stronger effect”. Further, in [5] (up to 6 h), the “peptide cleavage by FXIa” value is “remained intact; also recorded: No cleavage”.

Regarding “PCSK9-AA: PCSK9 mutant in which the furin cleavage loop residues R215 and R218 had been changed to Alanine”, in [6], the Kd stood at 260 nM.

Turning to “SGDLMPWNLVRIGLLR-NH2 [Compound K9gvpep7]”, the “competition with binding of phage-displayed Pep2-8 to PCSK9” value in [7] is reported as “did not compete”. Besides, the IC50 stood at 635 ± 107 nM in [8] and 914 ± 28.3 nM in data set [9].

On to “SGGSMPWNLERIFALH-NH2 [Compound K9gvpep8]”, for which, in [7], the “competition with binding of phage-displayed Pep2-8 to PCSK9” value was “did not compete”. In addition, the IC50 in data set [8] worked out at 1700 ± 166 nM; in data set [9], 2150 ± 215 nM.

“alpha1-antitrypsin: more elastase-specific serpin”: the “inhibition of P′ helix cleavage of the Fab33:PCSK9 complex by contaminating protease” value in data set [10] is reported as “did not inhibit cleavage”.

As for antithrombin III, the “inhibition of P′ helix cleavage of the Fab33:PCSK9 complex by contaminating protease” value in [10] was “cleavage was prevented; also recorded: able to prevent proteolytic cleavage”.

B1: PCSK9-AAA: triple mutant PCSK9-R167A:R215A:R218A (protein, UniProt Q8NBP7 153-692, looked up, variant R167A R215A R218A)
Proprotein convertase …: SIPWNLERITPPRYAADEYQPPDGGSLVEVYLLDTSIQSDHREIEGRVMVTDFENVPEEDGTAFHAQASKCDSHGTHLAGVVSGRDAGVAKGASMRSLRVLNCQGKGTVSGTLIGLEFIRKSQLVQPVGPLVVLLPLAGGYSRVLNAACQRLARAGVVLVTAAGNFRDDACLYSPASAPEVITVGATNAQDQPVTLGTLGTNFGRCVDLFAPGEDIIGASSDCSTCFVSQSGTSQAAAHVAGIAAMMLSAEPELTLAELRQRLIHFSAKDVINEAWFPEDQRVLTPNLVAALPPSTHGAGWQLFCRTVWSAHSGPTRMATAVARCAPDEELLSCSSFSRSGKRRGERMEAQGGKLVCRAHNAFGGEGVYAIARCCLLPQANCSVHTAPPAEASMGTRVHCHQQGHVLTGCSSHWEVEDLGTHKPPVLRPRGQPNQCVGHREASIHASCCHAPGLECKVKEHGIPAPQEQVTVACEEGWTLTGCSALPGTSHVLGAYAVDNTCVVRSRDVSTTGSTSEGAVTAVAICCRSRHLAQASQELQ
For B1, in data set [6], the Kd amounted to 214 nM.

The Kd is the equilibrium constant for the complex coming apart. A lower Kd goes with higher affinity.
